Where a SMILES comes first, the peptide text is derived from it. The star is where a group is joined. Octanoyl = CCCCCCCC(=O)*

The results in this text go back to patent publication US7407940B2, “Antimicrobial hexapeptides” (Helix BioMedix Inc., priority 2005, dated 2008).

For one data set, the system named is S. aureus. Briefly: Kill curve in vaginal simulant, S. aureus. It counts as cell-based. The following applies: FIG. 2. An excerpt:
(§1) An additional embodiment of the invention is directed towards methods of treating sexually transmitted diseases (STDs). Many of the fungal species responsible for STDs are likely to be inhibited or killed by application of one or more of the inventive hexapeptides of Table 1. Examples of such species include C. albicans, C. glabrata, and C. tropicalis. The inventive hexapeptide/s may additionally be used against other agents responsible for STDs including viruses and bacteria. The hexapeptide/s can be administered to an STD patient by any acceptable method, such as topical, oral, or systemic delivery. The hexapeptide/s can be administered in a single dose, in multiple doses, or as a continuous delivery. The hexapeptide/s can be administered in any acceptable form, such as a cream, gel, or liquid. An indication of the likelihood of activity of the hexapeptides of the present invention in the vaginal environment is shown in FIG. 2, where the activity of SEQ ID NO:55 is shown in killing curves against C. Albicans and S. aureus.

A further data set has as its system C. albicans. Briefly: Kill curve in vaginal simulant, C. albicans. It counts as cell-based. To be noted: FIG. 2.
Description: as §1

The subject of another data set is P. aeruginosa. It counts as cell-based. The following applies: drug resistant P. aeruginosa. The protocol:
(§2) The fractional inhibitory concentration (FIC) index was used to determine the synergy between antimicrobial agents. Peptide MICs against test microorganisms were determined three times on separate occasions. […]

The test system of another data set is MRSA. Kind of data set: Kill curve in 10% sheep serum-phosphate buffer against MRSA. The following applies: 10% serum / biological environments. It counts as cell-based, S. aureus.
Details of data set [1]: species or system Sprague-Dawley rats. To be noted: rat, in vivo. An excerpt:
Each wound observed at each dressing change and the wound surface and tissue reaction assessed. There were 5 parameters of wound status that were checked: • i. Wound Film Security—Was the adhesive film used to cover the wound still completely adherent to the skin around the wound? • ii. Wound Surface—What was the exact visual appearance of the wound surface? • iii. Amount of Exudate—How much exudate was trapped under the film? In many cases, accumulated exudate causes the film to lose adherence and the exudates will escape. • iv. Severity of Tissue Reaction—A subjective rating of extent of tissue reaction on a scale of 1 (minimal), 2 (moderate), 3 (extensive). • v. % of Tissue Involved—In some situations, the wound surface contained denatures, friable tissue that could be wiped off with pressure applied to gauze. This test was used to better differentiate denatured tissue from viscous exudates.

Data set [2] has as its system azole resistant strains of C. albicans. It counts as cell-based. The following applies: azole resistant strains of C. albicans. The protocol:
as §2
All strains are azole resistant clinical isolates from Prof. Ted White (Seattle Biotechnology Research Institute, Seattle)

Another data set has as its system Lipoteichoic acid (LTA). Briefly: LTA binding assay. The following applies: FIG. 7. An excerpt:
Lipoteichoic acid (LTA) is a common cell wall component of gram-positive bacteria including organisms such as S. aureus and P. acnes. The release of LTA during infection can lead to the release of mediators of the host inflammatory response which in turn can result in sepsis (septic shock). For example, when injected into animals, LTA can elicit many of the characteristic features of septic shock, including cytokine production, leukocytopenia, circulatory failure, multiple-organ dysfunction syndrome, and mortality.

As for `CCCCCCCC(=O)N[C@@H](CCCCN)C(=O)N[C@@H](Cc1ccccc1)C(=O)N[C@@H](CCCCN)C(=O)N[C@@H](Cc1c[nH]c2ccccc12)C(=O)N1CCC[C@H]1C(=O)N[C@@H](Cc1c[nH]c2ccccc12)C(N)=O` [SEQ ID NO:55] (Octanoyl-KFKWPW-NH2), the “killing in vaginal simulant (in words)” value in the data set on S. aureus and in the data set on C. albicans was “killing” each time. In the data set on P. aeruginosa, the “synergy with polymyxin B (in words)” value is listed as “displayed synergistic activity”. For the same molecule, the “ability to kill S. aureus in serum (in words)” value in the data set with MRSA is recorded as “increased ability”. Besides, the “tissue reaction (in words)” value in data set [1] was “mild”. For the same molecule, the “synergy with clotrimazole (in words)” value in data set [2] is on record as “exhibits synergy”. Also, the “LTA binding (in words)” value in the data set with Lipoteichoic acid (LTA) is recorded as “fail to bind LTA”.
